Data set [1] deals with Cytochrome P450 enzyme activity (ethoxyresorufin-O-deethylase activity). Kind of data set: Dioxin-induced EROD (cytochrome P450 enzyme) activity inhibition in Hep G2 cells. It counts as cell-based. The conditions noted are these: Homo sapiens, read-out: Dioxin-induced EROD activity inhibition IC50. The method, then: (§1) Hep G2 cell that is a human hepatocarcinoma cell line was cultured in an incubator with a culture medium of Dulbecco's Modified Eagle Medium (DMEM) containing 10% of Fetal Bovine Serum (FBS) at 37° C. under an atmosphere of 5% of CO2.
1×104 of the cultured human hepatocarcinoma cells were placed into wells of a […]. After 24 hours, the cells were treated with a solution in which compounds represented by formulae 2 through 8 (obtained from Chembridge Corporation, San Diego, Calif.) were dissolved in dimethyl sulfoxide (DMSO) in a concentration of 0.1%. After one hour, the cells were treated with 3 nM of 2,3,7,8-tetrachlorodibenzo-p-dioxin (obtained from Cambridge Isotope Laboratory, Andover, Mass., U.S.A.). Cytochrome P450 enzyme activity was measured after 24 hours and the measured activity was evaluated by measuring ethoxyresorufin-O-deethylase activity (EROD, Ciolino et al, 1998).

In a further data set the test system is cytochrome P450 1A1. Nature of the data set: Western blot of dioxin-induced cytochrome P450 1A1 expression in hepatocarcinoma cells. It counts as cell-based, human. The method, then:
as §1
3×10^5 of the cultured human hepatocarcinoma cells were placed into tissue culture plates and cultured for 24 hours. After 24 hours, the cells were treated with a solution in which Compound 2 (obtained from Chembridge Corporation, San Diego, Calif.) was dissolved in dimethyl sulfoxide (DMSO) in a concentration of 0.1%. After one hour, the cells were treated with 3 nM of 2,3,7,8-tetrachlorodibenzo-p-dioxin (obtained from Cambridge Isotope Laboratory, Andover, Mass., U.S.A.). After 24 hours, the culture medium was removed by suction and the cells were washed with phosphate buffer solution. Then the cells were lysed and the protein was quantified.
In FIG. 1, flavone that has been widely reported to inhibit dioxin toxicity even though it increases dioxin toxicity at high concentrations was used as a positive control group. FIG. 1 illustrates Western blot analysis of cells treated with Compound 2 and flavone.

A further data set addresses T1, dioxin receptor (Homo sapiens, UniProt P35869).
T1 construct: endogenous in cells; host or cells: hepatocarcinoma cells (cytoplasm fraction)
T1 sequence (P35869 11-848): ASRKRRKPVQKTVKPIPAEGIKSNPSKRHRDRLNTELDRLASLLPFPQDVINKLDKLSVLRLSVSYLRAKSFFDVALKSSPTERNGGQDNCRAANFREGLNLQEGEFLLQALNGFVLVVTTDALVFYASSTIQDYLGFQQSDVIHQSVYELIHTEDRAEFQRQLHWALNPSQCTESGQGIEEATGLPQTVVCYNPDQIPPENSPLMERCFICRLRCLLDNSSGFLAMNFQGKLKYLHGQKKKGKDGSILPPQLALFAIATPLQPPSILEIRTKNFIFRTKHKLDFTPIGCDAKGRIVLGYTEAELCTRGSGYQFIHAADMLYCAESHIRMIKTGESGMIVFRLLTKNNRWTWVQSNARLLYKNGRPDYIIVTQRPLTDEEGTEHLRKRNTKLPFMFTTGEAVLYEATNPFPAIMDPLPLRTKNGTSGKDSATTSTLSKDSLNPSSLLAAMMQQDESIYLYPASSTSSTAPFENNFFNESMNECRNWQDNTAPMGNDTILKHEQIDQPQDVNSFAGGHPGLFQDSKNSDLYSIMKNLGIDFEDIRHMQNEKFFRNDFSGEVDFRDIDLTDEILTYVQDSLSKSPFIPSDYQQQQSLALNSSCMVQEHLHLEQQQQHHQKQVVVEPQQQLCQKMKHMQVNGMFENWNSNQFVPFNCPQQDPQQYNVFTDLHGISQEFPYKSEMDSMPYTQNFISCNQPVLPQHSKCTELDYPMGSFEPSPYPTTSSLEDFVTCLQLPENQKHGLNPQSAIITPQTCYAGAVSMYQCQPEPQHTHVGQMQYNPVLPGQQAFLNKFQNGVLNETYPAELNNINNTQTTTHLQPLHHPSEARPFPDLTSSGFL
Kind of data set: Inhibition of 3[H]-dioxin binding to its receptor in hepatocarcinoma cell cytoplasm (hydroxylapatite). As for the experimental part:
Compound 2 and 3[H]-dioxin were added to cytoplasm of hepatocarcinoma cells and analysis on binding of ligand-receptor was performed using hydroxylapatite. […] The results are illustrated in FIG. 2.
FIG. 2 illustrates the ability in percentage of Compound 2 to inhibit the binding of 3[H]-dioxin to its receptor.

Read-outs that look alike come from different tables or passages of the source.

The IC50 is the concentration that gives 50% inhibition.

With `Cc1ccccc1N=Nc1ccc(NC(=O)c2ccnn2C)c(C)c1` [Compound 2], the IC50 in data set [1] (HepG2, 24 h) came out at 30 ± 2 nM. Further, in the data set on cytochrome P450 1A1 (human hepatocarcinoma cells, 3 nM dioxin, 24 hours, Western blot), the “expression of cytochrome P450 1A1 that is increased by dioxin” value was “inhibited expression of cytochrome P450 1A1”. Moreover, the “effect in decreasing the amount of expressed cytochrome P450 enzyme” value in the data set on cytochrome P450 1A1 (various concentrations, FIG. 1) is on record as “excellent effect”. For the same molecule, on dioxin receptor (Compound 2 at 0.1, 1 and 10 μM, FIG. 2), the “binding ability of 3[H]-dioxin to its receptor with increasing concentration” value is on record as “decreased as the concentration of Compound 2 increased”. In addition, the “binding of 3[H]-dioxin to its receptor” value at dioxin receptor (cytoplasm of hepatocarcinoma cells, hydroxylapatite) is reported as “inhibited the binding”.
Turning to `CC(=O)N(C(C)=O)c1ccc(N=Nc2ccccc2C)cc1C` [Compound 3], the IC50 in data set [1] (HepG2, 24 h) amounted to 75 ± 4 nM.
On the same count and under the same terms, the figure for `Cc1ccccc1N=Nc1ccc(NC(=O)c2ccc(F)cc2)c(C)c1` [Compound 4] is 105 ± 11 nM; for `Cc1ccccc1N=Nc1ccc(NC(=O)C(C)C)c(C)c1` [Compound 5] it is 110 ± 7 nM.
In the case of `Cc1ccccc1N=Nc1ccc(NC(=O)c2cccs2)c(C)c1` [Compound 6], the IC50 in data set [1] (HepG2, 24 h) turned out to be 153 ± 10 nM.
For `Cc1cc(N=Nc2ccccc2C)ccc1N` [Compound 7], in data set [1] (HepG2, Hep G2 cells, 3 nM 2,3,7,8-tetrachlorodibenzo-p-dioxin, measured after 24 hours), the IC50 came out at 215 ± 42 nM.
Turning to `CCCCNC(=O)Nc1ccc(N=Nc2ccccc2C)cc1C` [Compound 8], in data set [1] (HepG2, 24 h), the IC50 was determined as 450 ± 75 nM.
